Like-named read-outs stand apart in the source and are kept apart here.
Tests used:
PC3MM cells = assay: Cell Proliferation Assay (Cell Titer Glo), PC3MM; format: cell-based; details: Cell Proliferation Assay, PC3MM; read-out: CPEC50 PC3MM
Procedure: IV. Cell Proliferation Assay Protocol:
A2780, PC-3, or PC3MM cells were seeded at 1000 cells/well in 100 μL/well (10.000 cells/mL) growth media in 96-well plates. Cells were allowed to adhere to the bottom of plates for 3-5 hours in a 37° C. 5% CO2 incubator. Compounds were dissolved in DMSO and then transferred to the cell plates. The cells were incubated with the compounds for 3 days in a 37° C. 5% CO2 incubator. The growth medium containing the compounds was then removed from the cells and fresh medium was added, followed by 100 μL of Cell Titer Glo assay reagent (Promega). This mixture was shaken for 1 minute and then incubated without shaking for 10 minutes. Activity determinations for the compounds were made by detection on a Trilux Instrument.

PDK1 kinase = biological target: T1, PDK1 kinase (Homo sapiens, UniProt O15530); assay: PDK1 Kinase Alpha Screen Assay; format: biochemical; details: read-out: PDK1 IC50
T1 sequence (O15530 1-556): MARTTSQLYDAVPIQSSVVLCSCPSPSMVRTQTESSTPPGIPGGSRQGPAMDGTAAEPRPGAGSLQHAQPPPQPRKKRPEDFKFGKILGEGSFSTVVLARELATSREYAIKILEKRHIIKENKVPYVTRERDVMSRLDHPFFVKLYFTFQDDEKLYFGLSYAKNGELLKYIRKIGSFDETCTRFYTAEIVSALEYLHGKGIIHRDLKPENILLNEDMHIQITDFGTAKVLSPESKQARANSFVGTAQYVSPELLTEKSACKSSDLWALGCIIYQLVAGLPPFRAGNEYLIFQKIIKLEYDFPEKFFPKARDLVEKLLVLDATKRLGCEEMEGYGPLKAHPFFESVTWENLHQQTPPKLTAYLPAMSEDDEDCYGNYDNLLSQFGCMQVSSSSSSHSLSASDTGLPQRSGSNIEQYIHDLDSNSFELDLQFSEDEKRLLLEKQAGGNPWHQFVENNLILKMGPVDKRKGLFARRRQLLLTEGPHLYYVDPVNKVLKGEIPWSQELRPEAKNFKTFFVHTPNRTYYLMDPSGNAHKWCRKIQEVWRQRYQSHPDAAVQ
In short: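 PDK1 phosphorylated 50 nM biotinylated PDK1-4 peptide with 10 uM ATP in Tris pH 7.5, 10 mM MgCl2, 2 mM DTT, 2.5% DMSO for 3-18 hours. After EDTA stop, phosphopeptide was detected by AlphaScreen using phospho-(Ser/Thr) PKA substrate antibody with protein A/streptavidin beads, read after overnight incubation.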

A2780 cells = assay: Cell Proliferation Assay (Cell Titer Glo), A2780; format: cell-based; details: Homo sapiens, A2780 cells, read-out: CPEC50 A2780
In short: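 Cells seeded at 1000/well, allowed to adhere 3-5 h, then exposed to DMSO-dissolved compounds for 3 days at 37° C., 5% CO2. Medium replaced before Cell Titer Glo addition; luminescence read after 10 min.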

PC-3 cells = assay: Cell Proliferation Assay (Cell Titer Glo), PC-3 cell line; format: cell-based; details: Homo sapiens, read-out: CPEC50 PC3
In short: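 PC-3 cells, 1000 cells/well, left to adhere 3-5 h, then exposed for 3 days at 37° C to compounds as 1:3 serial dilutions from 500× DMSO stocks diluted in growth medium. Medium then replaced with fresh medium and viability read by Cell Titer Glo luminescence.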

[1] = PC-3, cell proliferation, PC3 cells

c1cc(N2CCOCC2)ccc1Nc1ncc2cc(-c3cn[nH]c3)c(OC3CCNCC3)cc2n1 [Compound 651, N-(4-morpholinophenyl)-7-(piperidin-4-yloxy)-6-(1H-pyrazol-4-yl)quinazolin-2-amine]
EC50 (PC3MM cells): < 5 µM
IC50 (PDK1 kinase; PDK1 Kinase Alpha Screen Assay): < 5 µM

CN1CCC(Oc2cc3nc(Nc4ccc(N5CCOCC5)cc4)ncc3cc2-c2cn[nH]c2)CC1 [Compound 654, 7-(1-methylpiperidin-4-yloxy)-N-(4-morpholinophenyl)-6-(1H-pyrazol-4-yl)quinazolin-2-amine]
EC50 (PC3MM cells): < 5 µM
IC50 (PDK1 kinase; PDK1 Kinase Alpha Screen Assay): < 5 µM

CN1CCC(Oc2ccc3cnc(Nc4ccc(N5CCOCC5)cc4)nc3c2)CC1 [Compound 655, 7-(1-methylpiperidin-4-yloxy)-N-(4-morpholinophenyl)quinazolin-2-amine]
EC50 (PC3MM cells): < 5 µM
IC50 (PDK1 kinase; PDK1 Kinase Alpha Screen Assay): < 5 µM

COC(=O)Nc1cc(CN2CCOCC2)cc(Nc2ncc3cccc(OC4CCNCC4)c3n2)c1 [Compound 656, methyl 3-(morpholinomethyl)-5-(8-(piperidin-4-yloxy)quinazolin-2-ylamino)phenylcarbamate]
EC50 (PC3MM cells): < 5 µM
IC50 (PDK1 kinase; PDK1 Kinase Alpha Screen Assay): < 5 µM

C#Cc1cc(OC2CCNCC2)c2nc(Nc3cc(NC(C)=O)cc(-c4cncnc4)c3)ncc2c1 [Compound 657, N-(3-(6-ethynyl-8-(piperidin-4-yloxy)quinazolin-2-ylamino)-5-(pyrimidin-5-yl)phenyl)acetamide]
EC50 (PC3MM cells): < 5 µM
IC50 (PDK1 kinase; PDK1 Kinase Alpha Screen Assay): < 5 µM

CC(=O)Nc1cc(NC(C)=O)cc(Nc2ncc3ccc(OC4CCNCC4)cc3n2)c1 [Compound 658, N,N′-(5-(7-(piperidin-4-yloxy)quinazolin-2-ylamino)-1,3-phenylene)diacetamide]
EC50 (PC3MM cells): 5 to 10 µM
IC50 (PDK1 kinase; PDK1 Kinase Alpha Screen Assay): < 5 µM

CC(=O)Nc1cc(Nc2ncc3ccc(OC4CCNCC4)cc3n2)cc(-c2cn[nH]c2)c1 [Compound 659, N-(3-(7-(piperidin-4-yloxy)quinazolin-2-ylamino)-5-(1H-pyrazol-4-yl)phenyl)acetamide]
EC50 (PC3MM cells): < 5 µM
IC50 (PDK1 kinase; PDK1 Kinase Alpha Screen Assay): < 5 µM

NS(=O)(=O)c1ccc(Nc2ncc3cc(F)cc(-c4ccc5c(c4)CCNC5=O)c3n2)cc1 [Compound 884, 4-(6-fluoro-8-(1-oxo-1,2,3,4-tetrahydroisoquinolin-6-yl)quinazolin-2-ylamino)benzenesulfonamide]
EC50 (A2780 cells; cell proliferation): < 5 µM
IC50 (PDK1 kinase; PDK1 Kinase Alpha Screen Assay): < 5 µM
EC50 (PC-3 cells; [1]): < 5 µM

Nc1ccc(-c2cc(F)cc3cnc(Nc4ccc(S(N)(=O)=O)cc4)nc23)cn1 [Compound 885, 4-(8-(6-aminopyridin-3-yl)-6-fluoroquinazolin-2-ylamino)benzenesulfonamide]
EC50 (A2780 cells; cell proliferation): < 5 µM
IC50 (PDK1 kinase; PDK1 Kinase Alpha Screen Assay): < 5 µM
EC50 (PC-3 cells; [1]): < 5 µM

CN1CCN(c2ccc(-c3cc(F)cc4cnc(Nc5ccc(S(N)(=O)=O)cc5)nc34)cn2)CC1 [Compound 888, 4-(6-fluoro-8-(6-(4-methylpiperazin-1-yl)pyridin-3-yl)quinazolin-2-ylamino)benzenesulfonamide]
EC50 (A2780 cells; cell proliferation): < 5 µM
IC50 (PDK1 kinase; PDK1 Kinase Alpha Screen Assay): < 5 µM
EC50 (PC-3 cells; [1]): < 5 µM

NS(=O)(=O)c1ccc(Nc2ncc3cc(F)cc(-c4ccc(NCCN5CCCC5)nc4)c3n2)cc1 [Compound 892, 4-(6-fluoro-8-(6-(2-(pyrroidin-1-yl)ethylamino)pyridin-3-yl)quinazolin-2-ylamino)benzenesulfonamide]
EC50 (A2780 cells; cell proliferation): < 5 µM
IC50 (PDK1 kinase; PDK1 Kinase Alpha Screen Assay): < 5 µM
EC50 (PC-3 cells; [1]): < 5 µM

COCCNc1ccc(-c2cc(F)cc3cnc(Nc4ccc(S(N)(=O)=O)cc4)nc23)cn1 [Compound 893, 4-(6-fluoro-8-(6-(2-methoxyethylamino)pyridin-3-yl)quinazolin-2-ylamino)benzenesulfonamide]
EC50 (A2780 cells; cell proliferation): < 5 µM
IC50 (PDK1 kinase; PDK1 Kinase Alpha Screen Assay): < 5 µM
EC50 (PC-3 cells; [1]): < 5 µM

NS(=O)(=O)c1ccc(Nc2ncc3cc(F)cc(-c4ccc(N5CCOCC5)nc4)c3n2)cc1 [Compound 894, 4-(6-fluoro-8-(6-morpholinopyridin-3-yl)quinazolin-2-ylamino)benzenesulfonamide]
EC50 (A2780 cells; cell proliferation): < 5 µM
IC50 (PDK1 kinase; PDK1 Kinase Alpha Screen Assay): < 5 µM
EC50 (PC-3 cells; [1]): < 5 µM

Cn1cc(-c2ccc3cnc(Nc4ccc(S(N)(=O)=O)cc4)nc3c2-c2ccccc2)cn1 [Compound 904, 4-(7-(1-methyl-1H-pyrazol-4-yl)-8-phenylquinazolin-2-ylamino)benzenesulfonamide]
EC50 (A2780 cells; cell proliferation): < 5 µM
IC50 (PDK1 kinase; PDK1 Kinase Alpha Screen Assay): < 5 µM
EC50 (PC-3 cells; [1]): < 5 µM

Cn1cc(-c2ccc3cnc(Nc4ccc(S(N)(=O)=O)cc4)nc3c2-c2ccc(N)nc2)cn1 [Compound 905, 4-(8-(6-aminopyridin-3-yl)-7-(1-methyl-1H-pyrazol-4-yl)quinazolin-2-ylamino)benzenesulfonamide]
EC50 (A2780 cells; cell proliferation): < 5 µM
IC50 (PDK1 kinase; PDK1 Kinase Alpha Screen Assay): < 5 µM
EC50 (PC-3 cells; [1]): < 5 µM

CN1CCN(C(=O)c2ccc(-c3c(-c4cnn(C)c4)ccc4cnc(Nc5ccc(S(N)(=O)=O)cc5)nc34)cc2)CC1 [Compound 906, 4-(7-(1-methyl-1H-pyrazol-4-yl)-8-(4-(4-methylpiperazine-1-carbonyl)phenyl)quinazolin-2-ylamino)benzenesulfonamide]
EC50 (A2780 cells; cell proliferation): < 5 µM
IC50 (PDK1 kinase; PDK1 Kinase Alpha Screen Assay): < 5 µM
EC50 (PC-3 cells; [1]): < 5 µM

Cn1cc(-c2ccc3cnc(Nc4ccc(S(N)(=O)=O)cc4)nc3c2-c2ccc(F)nc2)cn1 [Compound 907, 4-(8-(6-fluoropyridin-3-yl)-7-(1-methyl-1H-pyrazol-4-yl)quinazolin-2-ylamino)benzenesulfonamide]
EC50 (A2780 cells; cell proliferation): < 5 µM
IC50 (PDK1 kinase; PDK1 Kinase Alpha Screen Assay): < 5 µM
EC50 (PC-3 cells; [1]): < 5 µM

COCCNc1ccc(-c2c(-c3cnn(C)c3)ccc3cnc(Nc4ccc(S(N)(=O)=O)cc4)nc23)cn1 [Compound 908, 4-(8-(6-(2-methoxyethylamino)pyridin-3-yl)-7-(1-methyl-1H-pyrazol-4-yl)quinazolin-2-ylamino)benzenesulfonamide]
EC50 (A2780 cells; cell proliferation): < 5 µM
IC50 (PDK1 kinase; PDK1 Kinase Alpha Screen Assay): < 5 µM
EC50 (PC-3 cells; [1]): < 5 µM

Cn1cc(-c2ccc3cnc(Nc4ccc(S(N)(=O)=O)cc4)nc3c2-c2ccc(N3CCOCC3)nc2)cn1 [Compound 909, 4-(7-(1-methyl-1H-pyrazol-4-yl)-8-(6-morpholinopyridin-3-yl)quinazolin-2-ylamino)benzenesulfonamide]
EC50 (A2780 cells; cell proliferation): < 5 µM
IC50 (PDK1 kinase; PDK1 Kinase Alpha Screen Assay): < 5 µM
EC50 (PC-3 cells; [1]): < 5 µM

CN1CCN(c2ccc(-c3c(-c4cnn(C)c4)ccc4cnc(Nc5ccc(S(N)(=O)=O)cc5)nc34)cn2)CC1 [Compound 910, 4-(7-(1-methyl-1H-pyrazol-4-yl)-8-(6-(4-methylpiperazin-1-yl)pyridin-3-yl)quinazolin-2-ylamino)benzenesulfonamide]
EC50 (A2780 cells; cell proliferation): < 5 µM
IC50 (PDK1 kinase; PDK1 Kinase Alpha Screen Assay): < 5 µM
EC50 (PC-3 cells; [1]): < 5 µM

NS(=O)(=O)c1ccc(Nc2ncc3ccc(-c4ccccc4)c(OC4CCNCC4)c3n2)cc1 [Compound 911, 4-(7-phenyl-8-(piperidin-4-yloxy)quinazolin-2-ylamino)benzenesulfonamide]
EC50 (A2780 cells; cell proliferation): < 5 µM
IC50 (PDK1 kinase; PDK1 Kinase Alpha Screen Assay): < 5 µM
EC50 (PC-3 cells; [1]): < 5 µM

NS(=O)(=O)c1ccc(Nc2ncc3cc(F)cc(-c4ccc(N5CCS(=O)(=O)CC5)nc4)c3n2)cc1 [Compound 913]
EC50 (A2780 cells; cell proliferation): < 5 µM
IC50 (PDK1 kinase; PDK1 Kinase Alpha Screen Assay): < 5 µM
EC50 (PC-3 cells; [1]): < 5 µM

CC(C)Nc1ccc(-c2cc(F)cc3cnc(Nc4ccc(S(N)(=O)=O)cc4)nc23)cn1 [Compound 914, 4-(6-fluoro-8-(6-(isopropylamino)pyridin-3-yl)quinazolin-2-ylamino)benzenesulfonamide]
EC50 (A2780 cells; cell proliferation): < 5 µM
IC50 (PDK1 kinase; PDK1 Kinase Alpha Screen Assay): < 5 µM
EC50 (PC-3 cells; [1]): < 5 µM

CN1CCN(C(=O)c2ccc(-c3cc(F)cc4cnc(Nc5ccc(S(N)(=O)=O)cc5)nc34)cc2)CC1 [Compound 915, 4-(6-fluoro-8-(4-(4-methylpiperazine-1-carbonyl)phenyl)quinazolin-2-ylamino)benzenesulfonamide]
EC50 (A2780 cells): < 5 µM
IC50 (PDK1 kinase): < 5 µM
EC50 (PC-3 cells; PC-3, PC3 cells): < 5 µM

CC(C)N1CCN(Cc2cccc3cnc(Nc4ccc(S(N)(=O)=O)cc4)nc23)CC1 [Compound 925, 4-(8-((4-isopropylpiperazin-1-yl)methyl)quinazolin-2-ylamino)benzenesulfonamide]
EC50 (A2780 cells): < 5 µM
IC50 (PDK1 kinase): < 5 µM
EC50 (PC-3 cells; PC-3, PC3 cells): 5 to 10 µM

— patent US7932262B2 (Novartis AG, priority 2006, dated 2011)
